Measurements published in article PMC6562844, “A Basic Study of Photodynamic Therapy with Glucose-Conjugated Chlorin e6 Using Mammary Carcinoma Xenografts” (Cancers, 2019).

Assays:
SNP cells = experiment: Effect of a pan-caspase inhibitor on G-Ce6-PDT-induced cell death; assay type: cell-based, canine; details: 8 μg/mL G-Ce6; 10 μM Z-VAD-FMK; 5 J/cm^2
Procedure: SNP cells were incubated with 8 μg/mL G-Ce6 for 24 h in the presence (10 μM) or absence of Z-VAD-FMK (Medical & Biological Laboratories Co. Ltd., Aichi, Japan), which is a pan-caspase inhibitor. After washing with fresh media, the cells were irradiated with 650-nm laser light (10 mW/cm^2, 5 J/cm^2) emitted by a semiconductor laser, using an optical fiber with a microlens delivery attachment. Apoptosis was assessed at 4 h after laser irradiation using the Muse Annexin V and Dead Cell Assay kit.

[1] = General physical examination and blood analysis in dogs; assay type: in vivo, healthy beagle dogs; details: for ALP / ALT / AST / BUN / Cre / GGT / Glu: Post (1 day after administration)
Procedure: The animal protocol using healthy beagle dogs was approved by the Animal Research Committee of the Tottori University (project number: 17-T-3). For the pharmacokinetic crossover study, 6, 3, and 1 healthy beagle dogs were intravenously administered G-Ce6 at a dose of 2, 5, and 20 mg/kg, respectively. The ages of the healthy dogs (3 males and 3 females) ranged from 6–12 years old (mean and median, 8.6 and 7.5 years, respectively); the dogs weighed 8.7–11.2 kg (mean and median, 10.2 and 10.5 kg, respectively).
A general physical examination was performed on all dogs before and after PDT. Serum biochemistry analysis of glucose (Glu), AST, ALT, alkaline phosphatase (ALP), γ-glutamyltranspeptidase (GGT), blood urea nitrogen, and creatinine (Cre) was also performed for all dogs immediately before and 1 day after G-Ce6 administration.

SMILES: CCC1=C(C)c2cc3[nH]c(cc4nc(c(CC(=O)OC)c5[nH]c(cc1n2)c(C)c5C(=O)OC)[C@@H](CCC(=O)OC)[C@@H]4C)c(C)c3C(C)OCCCS[C@@H]1O[C@H](CO)[C@@H](O)[C@H](O)[C@H]1O (stereo partly drawn) [G-Ce6, Methyl (7S,8S)-18-ethyl-5-(2-methoxy-2-oxoethyl)-7-(3-methoxy-3-oxopropyl)-2,8,12,17-tetramethyl-13-(1-(3-(((2S,3R,4S,5S,6R)-3,4,5-trihydroxy-6-(hydroxymethyl)tetrahydro-2H-pyran-2-yl)thio)propoxy)ethyl)-7H,8H-porphyrin-3-carboxylate]
- G-Ce6-PDT-induced apoptosis and cell death in the presence of Z-VAD-FMK (SNP cells): could not be blocked
- Changes in serum biochemical parameters ([1]; 2 mg/kg i.v.): No significant changes
- Major skin photosensitivity or acute toxicity (vomiting, diarrhea, salivation) ([1]; 2 mg/kg i.v.): no evidence
- Tolerability in safety examination ([1]; 2 mg/kg i.v.): well tolerated
- ALP ([1]; 2 mg/kg i.v.): 154 ± 59.69 U/L
- ALT ([1]; 2 mg/kg i.v.): 40 ± 7.17 U/L
- AST ([1]; 2 mg/kg i.v.): 32 ± 4.72 U/L
- BUN ([1]; 2 mg/kg i.v.): 15.8 ± 4.20 mg/dL
- Cre ([1]; 2 mg/kg i.v.): 0.5 ± 0.09 mg/dL
- GGT ([1]; 2 mg/kg i.v.): 1.5 ± 2.35 U/L
- Glu ([1]; 2 mg/kg i.v.): 99.5 ± 17.85 mg/dL
- Changes in serum biochemical parameters ([1]; 5 mg/kg i.v.): no significant changes
- Side effects during administration ([1]; 5 mg/kg i.v.): Nausea was observed
- ALP ([1]; 5 mg/kg i.v.): 141.0 ± 47.04 U/L
- ALT ([1]; 5 mg/kg i.v.): 59.0 ± 9.52 U/L
- AST ([1]; 5 mg/kg i.v.): 31.0 ± 10.47 U/L
- BUN ([1]; 5 mg/kg i.v.): 13.4 ± 5.05 mg/dL
- Cre ([1]; 5 mg/kg i.v.): 0.5 ± 0.13 mg/dL
- GGT ([1]; 5 mg/kg i.v.): 5.0 ± 1.63 U/L
- Glu ([1]; 5 mg/kg i.v.): 96.0 ± 10.88 mg/dL
- Levels of AST and ALT in blood ([1]; 20 mg/kg i.v.): Increases
- Side effects during administration ([1]; 20 mg/kg i.v.): vomiting and weakness
- ALP ([1]; 20 mg/kg i.v.): 134.0 U/L
- ALT ([1]; 20 mg/kg i.v.): 135.0 U/L
- AST ([1]; 20 mg/kg i.v.): 55.0 U/L
- BUN ([1]; 20 mg/kg i.v.): 8.6 mg/dL
- Cre ([1]; 20 mg/kg i.v.): 0.5 mg/dL
- GGT ([1]; 20 mg/kg i.v.): 14.0 U/L
- Glu ([1]; 20 mg/kg i.v.): 107.0 mg/dL
- Toxic dose level ([1]; i.v.): 20 mg/kg
- Optimal dose, which did not cause any adverse effects ([1]; i.v., based on pharmacokinetics and safety examination): 2 mg/kg
